Assay results reported in patent US4229204A, “Trifluoromethylphenyl isoxazolyl benzoates” (Monsanto Company, priority 1978, dated 1980).

Tests used:
Format in all cases: in vivo
[1] = test system: Wild Buckwheat; test: Pre-emergent herbicidal test; settings: 4 WAT; further: ranges in brackets are in %
How it was run: (§1)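 Seeds or vegetative propagules were pressed onto compacted topsoil in pans, then covered with a soil layer thoroughly mixed with a known amount of active ingredient, applied in solvent or as a wettable powder. Injury to each species was scored on a fixed percent-injury scale.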

[2] = test system: Hemp Sesbania; test: Pre-emergent herbicidal test; settings: 4 WAT; further: ranges in brackets are in %
How it was run: as §1

[3] = test system: Soybean; test: Pre-emergent herbicidal test; settings: 4 WAT; further: ranges in brackets are in %
How it was run: as §1

[4] = test system: Panicum Spp.; test: Pre-emergent herbicidal test; settings: 4 WAT; further: ranges in brackets are in %
How it was run: as §1

[5] = test system: Sorghum; test: Pre-emergent herbicidal test; settings: 4 WAT; further: ranges in brackets are in %
How it was run: as §1

[6] = test system: Sugarbeet; test: Pre-emergent herbicidal test; settings: 4 WAT; further: ranges in brackets are in %
How it was run: as §1

[7] = test system: Crabgrass; test: Pre-emergent herbicidal test; settings: 4 WAT; further: ranges in brackets are in %
How it was run: as §1

[8] = test system: Rice; test: Pre-emergent herbicidal test; settings: 4 WAT; further: ranges in brackets are in %
How it was run: as §1

[9] = test system: Wheat; test: Pre-emergent herbicidal test; settings: 4 WAT; further: ranges in brackets are in %
How it was run: as §1

[10] = test system: Bluebell rice; test: Growth regulation of rice; settings: four-week old rice, 250 ppm, both at 3 weeks and 7 weeks after treatment
Description: The compound of Example Number 3 was applied to four-week old Bluebell rice at a rate of 250 ppm.

[11] = test system: Williams soybeans; test: Soybean seed yield test (Table V)
Protocol: Additionally, the compound of Example Number 3 was tested as follows.
Williams soybeans were planted on 5.5 inch row spacings. The soybeans were treated at three different stages of early growth (first, second or third trifoliate opening) with a formulation of the compound of Example Number 3 containing 0.25% Tween 20 as a surfactant.

[12] = test system: grain sorghum; test: Growth regulation of grain sorghum (Table IX); settings: 250 ppm
Description: The compound of Example Number 3 was also applied to four-week old grain sorghum at a rate of 250 ppm.

[13] = test system: Smartweed; test: Pre-emergent herbicidal test; further: ranges in brackets are in %
How it was run: (§2)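 Percent injury per species, scored on a fixed rating scale, was recorded after pre-emergent treatment. Planted seeds or propagules sat beneath a cover layer of soil mixed with a known amount of test compound.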

[14] = test system: Quackgrass; test: Pre-emergent herbicidal test; settings: 2 WAT, 11.2 kg/h; further: ranges in brackets are in %
How it was run: as §2

[15] = test system: Johnsongrass; test: Pre-emergent herbicidal test; settings: 2 WAT, 11.2 kg/h; further: ranges in brackets are in %
How it was run: as §2

Q: How did the herbicidal rating ([1]; 1.12 kg/h) turn out when `COC(=O)c1ccccc1-c1cc(-c2cccc(C(F)(F)F)c2)no1` [Example 3, Methyl 2-[3-[3-(Trifluoromethyl)-Phenyl]-5-Isoxazolyl]Benzoate] was run?
A: 2 (50-74)

Q: And the herbicidal rating ([1]; 5.60 kg/h)?
A: 3 (75-100)

Q: And the herbicidal rating ([2]; 1.12 kg/h)?
A: 3 (75-100)

Q: What about the herbicidal rating ([2]; 5.60 kg/h) of the same compound?
A: 3 (75-100)

Q: What about the herbicidal rating ([3]; 1.12 kg/h) of the same compound?
A: 2 (50-74)

Q: And the herbicidal rating ([3]; 5.60 kg/h)?
A: 3 (75-100)

Q: And the herbicidal rating ([4]; 1.12 kg/h)?
A: 2 (50-74)

Q: What about the herbicidal rating ([4]; 5.60 kg/h) of the same compound?
A: 3 (75-100)

Q: And the herbicidal rating ([5]; 1.12 kg/h)?
A: 2 (50-74)

Q: And the herbicidal rating ([5]; 5.60 kg/h)?
A: 3 (75-100)

Q: And the herbicidal rating ([6]; 1.12 kg/h)?
A: 2 (50-74)

Q: And the herbicidal rating ([6]; 5.60 kg/h)?
A: 3 (75-100)

Q: What about the herbicidal rating ([7]; 1.12 kg/h) of the same compound?
A: 2 (50-74)

Q: What about the herbicidal rating ([7]; 5.60 kg/h) of the same compound?
A: 2 (50-74)

Q: And the herbicidal rating ([8]; 1.12 kg/h)?
A: 3 (75-100)

Q: What about the herbicidal rating ([8]; 5.60 kg/h) of the same compound?
A: 3 (75-100)

Q: And the herbicidal rating ([9]; 1.12 kg/h)?
A: 1 (25-49)

Q: And the herbicidal rating ([9]; 5.60 kg/h)?
A: 2 (50-74)

Q: What about the “Observations compared with the control” value [10] of the same compound?
A: stature reduction and tillering

Q: And the “Seed Yield” value ([11]; 0.0062 lb/acre, stage of application 2 (untreated 63.9))?
A: 63.6 bu/acre

Q: And the “Seed Yield” value ([11]; 0.0125 lb/acre, stage of application 1 (untreated 63.9))?
A: 67.4 bu/acre

Q: And the “Seed Yield” value ([11]; 0.0125 lb/acre, stage of application 2 (untreated 63.9))?
A: 68.2 bu/acre

Q: What about the “Seed Yield” value ([11]; 0.0125 lb/acre, stage of application 3 (untreated 63.9)) of the same compound?
A: 65.7 bu/acre

Q: And the “Seed Yield” value ([11]; 0.0250 lb/acre, stage of application 1 (untreated 63.9))?
A: 62.5 bu/acre

Q: And the “Seed Yield” value ([11]; 0.0250 lb/acre, stage of application 2 (untreated 63.9))?
A: 64.7 bu/acre

Q: What about the “Seed Yield” value ([11]; 0.0250 lb/acre, stage of application 3 (untreated 63.9)) of the same compound?
A: 69.9 bu/acre

Q: What about the “Seed Yield” value ([11]; 0.0375 lb/acre, stage of application 1 (untreated 63.9)) of the same compound?
A: 59.6 bu/acre

Q: What about the “Seed Yield” value ([11]; 0.0375 lb/acre, stage of application 2 (untreated 63.9)) of the same compound?
A: 57.5 bu/acre

Q: What about the “Seed Yield” value ([11]; 0.0375 lb/acre, stage of application 3 (untreated 63.9)) of the same compound?
A: 70.3 bu/acre

Q: What about the “Seed Yield” value ([11]; 0.0500 lb/acre, stage of application 2 (untreated 63.9)) of the same compound?
A: 71.3 bu/acre

Q: What about the “Plant Height” value ([12]; 3 weeks after treatment) of the same compound?
A: 91 % of Control

Q: What about the “Other Observations” value ([12]; 7 weeks after treatment) of the same compound?
A: Necrosis.

Q: What about the “Plant Height” value ([12]; 7 weeks after treatment) of the same compound?
A: 81 % of Control

Q: What about the herbicidal rating ([13]; 2 WAT, 11.2 kg/h) of the same compound?
A: 3 (75-100)

Q: What about the herbicidal rating ([13]; 4 WAT, 1.12 kg/h) of the same compound?
A: 3 (75-100)

Q: And the herbicidal rating ([13]; 4 WAT, 5.60 kg/h)?
A: 3 (75-100)

Q: What about the herbicidal rating [14] of the same compound?
A: 3 (75-100)

Q: What about the herbicidal rating [15] of the same compound?
A: 2 (50-74)
